According to PMC3654564 (ACS Medicinal Chemistry Letters, 2013):
Residue numbers refer to the chain shown, from its start.

Experiments:
[1] = biological target: T1, oCOX-1 (Ovis aries, UniProt P05979); assay: COX inhibition screening assay; format: biochemical, ovine
T1 sequence (P05979 25-600): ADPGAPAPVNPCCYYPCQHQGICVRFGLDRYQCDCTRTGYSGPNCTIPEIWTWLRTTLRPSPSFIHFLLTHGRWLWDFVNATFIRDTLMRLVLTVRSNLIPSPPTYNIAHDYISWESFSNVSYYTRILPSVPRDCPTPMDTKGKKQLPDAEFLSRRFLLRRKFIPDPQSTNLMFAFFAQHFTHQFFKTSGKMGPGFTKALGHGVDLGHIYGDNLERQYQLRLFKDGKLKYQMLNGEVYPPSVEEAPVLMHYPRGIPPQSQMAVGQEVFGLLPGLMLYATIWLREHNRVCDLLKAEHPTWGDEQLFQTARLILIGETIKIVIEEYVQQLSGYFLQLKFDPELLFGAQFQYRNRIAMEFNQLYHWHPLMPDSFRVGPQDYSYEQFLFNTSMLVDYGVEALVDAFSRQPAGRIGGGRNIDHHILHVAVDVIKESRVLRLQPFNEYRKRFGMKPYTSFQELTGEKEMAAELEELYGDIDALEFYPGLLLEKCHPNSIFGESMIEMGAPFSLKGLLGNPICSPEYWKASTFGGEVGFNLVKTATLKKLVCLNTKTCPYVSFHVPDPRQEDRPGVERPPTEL

[2] = biological target: T2, mV523I (mCOX-2 mutant) (Mus musculus, UniProt Q05769, V509I); assay: COX inhibition screening assay, mCOX-2 V523I mutant; format: biochemical
T2 sequence (Q05769 18-604 V509I): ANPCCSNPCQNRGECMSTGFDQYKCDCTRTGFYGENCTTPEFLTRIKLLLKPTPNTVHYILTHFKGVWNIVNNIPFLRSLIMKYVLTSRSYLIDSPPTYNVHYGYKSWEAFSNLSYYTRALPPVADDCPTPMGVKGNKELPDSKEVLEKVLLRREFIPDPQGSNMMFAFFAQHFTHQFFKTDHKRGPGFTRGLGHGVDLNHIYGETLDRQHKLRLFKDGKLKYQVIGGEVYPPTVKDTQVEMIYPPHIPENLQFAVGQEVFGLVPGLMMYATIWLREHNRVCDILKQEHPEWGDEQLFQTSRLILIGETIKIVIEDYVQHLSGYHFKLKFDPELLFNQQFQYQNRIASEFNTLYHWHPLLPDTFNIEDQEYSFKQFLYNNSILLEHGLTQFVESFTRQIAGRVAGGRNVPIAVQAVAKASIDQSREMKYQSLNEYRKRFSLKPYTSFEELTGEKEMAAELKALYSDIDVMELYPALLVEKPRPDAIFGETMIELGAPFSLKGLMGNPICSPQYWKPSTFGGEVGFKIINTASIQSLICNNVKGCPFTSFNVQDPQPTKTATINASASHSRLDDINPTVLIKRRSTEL

[3] = biological target: T3, hCOX-2 (Homo sapiens, UniProt P35354); assay: Time-dependent COX inhibition assay; format: biochemical
T3 sequence (P35354 18-604): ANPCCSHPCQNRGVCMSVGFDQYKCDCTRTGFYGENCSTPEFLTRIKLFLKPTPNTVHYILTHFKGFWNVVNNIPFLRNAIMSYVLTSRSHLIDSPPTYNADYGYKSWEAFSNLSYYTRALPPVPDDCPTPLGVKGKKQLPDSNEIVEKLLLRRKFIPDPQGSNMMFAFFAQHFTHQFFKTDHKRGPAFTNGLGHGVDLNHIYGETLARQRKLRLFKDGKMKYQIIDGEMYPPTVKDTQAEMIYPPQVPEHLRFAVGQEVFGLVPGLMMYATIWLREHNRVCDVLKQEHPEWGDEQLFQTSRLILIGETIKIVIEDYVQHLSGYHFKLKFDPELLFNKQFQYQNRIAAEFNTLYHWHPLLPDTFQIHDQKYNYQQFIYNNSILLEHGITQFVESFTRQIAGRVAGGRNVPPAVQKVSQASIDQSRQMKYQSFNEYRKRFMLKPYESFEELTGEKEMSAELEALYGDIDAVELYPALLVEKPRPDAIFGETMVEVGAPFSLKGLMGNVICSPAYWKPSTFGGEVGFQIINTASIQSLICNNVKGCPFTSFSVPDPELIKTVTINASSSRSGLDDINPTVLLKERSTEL

[4] = system: carrageenan-induced rat paw edema; assay: Carrageenan-induced rat footpad edema model; format: in vivo; conditions: oral in corn oil 1 h postcarrageenan, footpad volume 2 h later
[5] = biological target: T4, mR120A (mCOX-2 mutant) (Mus musculus, UniProt Q05769, R106A); assay: COX inhibition screening assay, mCOX-2 R120A mutant; format: biochemical; conditions: inhibitor concentrations of up to 100 μM
T4 sequence (Q05769 18-604 R106A): T2 sequence (Q05769 18-604 V509I) with R89A, I492V

[6] = Gastrointestinal tolerability observation in rats; format: in vivo, rat
[7] = biological target: T5, mY355F (mCOX-2 mutant) (Mus musculus, UniProt Q05769, Y341F); assay: COX inhibition screening assay, mCOX-2 Y355F mutant; format: biochemical; conditions: inhibitor concentrations of up to 100 μM
T5 sequence (Q05769 18-604 Y341F): T2 sequence (Q05769 18-604 V509I) with Y324F, I492V

[8] = system: COX-2; conditions: also, to some extent, COX-1; cited from earlier work
[9] = Sprague–Dawley rats, doses higher than 2 mg/kg; ref previous studies; cited from earlier work

Row | Structure (SMILES) | IC50 [1] [nM] | effect on oCOX-1 ([1]; up to very high inhibitor concentrations (100 μM)) | IC50 [2] [nM] | KI for initial binding to COX-2, fold lower than for indomethacin [3] | Ki [3] [nM] | k2, fold slower than for indomethacin [3] [fold] | k2/KI, fold greater than for indomethacin [3] | forward rate constant (k2) ([3]; wild-type hCOX-2) [s^–1] | EC50, anti-inflammatory activity [4] [mg/kg] | inhibition of Arg-120 to Ala mutant of COX-2 [5] | gastrointestinal bleeding ([6]; rat, oral, tested up to 10 mg/kg) | overnight observation after testing ([6]; treated rats maintained overnight) | inhibition of Tyr355 to Phe mutant of COX-2 [7] | COX-2 inhibition (type) [8] | gastric toxicity at higher doses [9]
1 | COc1ccc2c(c1)c(CC(=O)O)c(C(F)(F)F)n2C(=O)c1ccc(Cl)cc1 [CF3–indomethacin, 2-(1-(4-chlorobenzoyl)-5-methoxy-2′-trifluoromethyl-1H-indol-3-yl)ethanoic acid] | > 100000 | no appreciable effect | > 4000 | approximately 9 fold | 1500 ± 260 | 3 | approximately 3 fold | 0.020 ± 0.001 | 1.7 | unable to inhibit | no evidence of gastrointestinal bleeding | no passage of blood from the gastrointestinal tract was observed | unable to inhibit | – | –
2 | COc1ccc2c(c1)c(CC(=O)O)cn2C(=O)c1ccc(Cl)cc1 [des-methyl derivative] | – | – | – | – | – | – | – | – | – | – | – | – | – | weak, reversible inhibitor | –
3 | COc1ccc2c(c1)c(CC(=O)O)c(C)n2C(=O)c1ccc(Cl)cc1 [indomethacin, 2-(1-(4-chlorobenzoyl)-5-methoxy-2′-methyl-1H-indol-3-yl)ethanoic acid, reference compound] | – | – | – | – | – | – | – | – | 1.0 | – | – | – | – | – | substantial gastric erosion and bleeding
